Laboratory results: US11591329B2, “Bicyclic heterocycles as FGFR inhibitors” (Incyte Corporation, priority 2019, dated 2023)

Biological target: FGFR3 enzyme (Homo sapiens (Human), UniProt P22607)
Assay: FGFR Enzymatic Assay (peptide phosphorylation, FRET)
Format: biochemical
Settings: pre-incubated for 4 hours; ATP 140 μM; 25° C. for 1 hr
Procedure: The inhibitor potency of the exemplified compounds was measured in an enzyme assay that measures peptide phosphorylation using FRET measurements to detect product formation. Inhibitors were serially diluted in DMSO and a volume of 0.5 μL was transferred to the wells of a 384-well plate. For FGFR3, a 10 μL volume of FGFR3 enzyme (Millipore) diluted in assay buffer (50 mM HEPES, 10 mM MgCl2, 1 mM EGTA, 0.01% Tween-20, 5 mM DTT, pH 7.5) was added to the plate and pre-incubated for a time between 5-10 minutes and up to 4 hours. Appropriate controls (enzyme blank and enzyme with no inhibitor) were included on the plate. The assay was initiated by the addition of a 10 μL solution containing biotinylated EQEDEPEGDYFEWLE peptide substrate (SEQ ID NO: 1) and ATP (final concentrations of 500 nM and 140 μM respectively) in assay buffer to the wells. The plate was incubated at 25° C. for 1 hr. The reactions were ended with the addition of 10 μL/well of quench solution (50 mM Tris, 150 mM NaCl, 0.5 mg/mL BSA, pH 7.8; 30 mM EDTA with Perkin Elmer Lance Reagents at 3.75 nM Eu-antibody PY20 and 180 nM APC-Streptavidin). The plate was allowed to equilibrate for ˜1 hr before scanning the wells on a PheraStar plate reader (BMG Labtech).
GraphPad prism3 was used to analyze the data. The IC50 values were derived by fitting the data to the equation for a sigmoidal dose-response with a variable slope. Y=Bottom+(Top−Bottom)/(1+10^((LogIC50−X)*HillSlope)) where X is the logarithm of concentration and Y is the response.
Table 1 provides IC50 data for compounds of the invention assayed in the FGFR Enzymatic Assay after dilution in assay buffer, added to the plate and pre-incubated for 4 hours. The symbol: “+” indicates an IC50 less than 10 nM; “++” indicates an IC50 greater than or equal to 10 nM but less than 30 nM; “+++” indicates an IC50 greater than or equal to 30 nM but less than 200 nM; and “++++” indicates an IC50 greater than or equal to 200 nM.

Sequence of FGFR3 enzyme (P22607 23-806): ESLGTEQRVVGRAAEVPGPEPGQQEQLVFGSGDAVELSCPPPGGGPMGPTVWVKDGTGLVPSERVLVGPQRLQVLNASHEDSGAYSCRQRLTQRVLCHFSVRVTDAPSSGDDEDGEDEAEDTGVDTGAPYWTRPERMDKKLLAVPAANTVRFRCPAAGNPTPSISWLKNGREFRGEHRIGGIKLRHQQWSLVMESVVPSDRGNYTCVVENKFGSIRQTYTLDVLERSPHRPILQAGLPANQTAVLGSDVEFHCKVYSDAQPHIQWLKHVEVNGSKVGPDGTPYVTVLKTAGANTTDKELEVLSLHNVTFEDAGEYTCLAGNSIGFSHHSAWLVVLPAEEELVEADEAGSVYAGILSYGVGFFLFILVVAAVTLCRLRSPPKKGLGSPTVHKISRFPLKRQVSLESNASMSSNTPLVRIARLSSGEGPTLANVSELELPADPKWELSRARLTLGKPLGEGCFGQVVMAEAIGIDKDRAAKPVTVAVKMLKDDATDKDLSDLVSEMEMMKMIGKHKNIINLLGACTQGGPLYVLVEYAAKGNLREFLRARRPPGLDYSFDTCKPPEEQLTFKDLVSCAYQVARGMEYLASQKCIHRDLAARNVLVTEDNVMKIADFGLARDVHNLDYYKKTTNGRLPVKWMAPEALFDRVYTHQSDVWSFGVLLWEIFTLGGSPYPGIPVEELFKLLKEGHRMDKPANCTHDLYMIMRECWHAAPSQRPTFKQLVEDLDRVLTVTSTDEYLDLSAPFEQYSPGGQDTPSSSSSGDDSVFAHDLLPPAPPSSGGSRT

| IC50 [nM] | SMILES |
| --- | --- |
| 30 to 200 | CC1C(=O)N(C)CCN1c1nc2c(-c3cnn(C)c3)n[nH]c2cc1C#N (centres unmarked) [Example 23, 5-(2,4-Dimethyl-3-oxopiperazin-1-yl)-3-(1-methyl-1H-pyrazol-4-yl)-1H-pyrazolo[4,3-b]pyridine-6-carbonitrile] |
| 10 to 30 | CC1C(=O)N(C)CCN1c1nc2c(-c3cnn(C)c3)n[nH]c2cc1Cl (centres unmarked) [Example 21, 4-(6-Chloro-3-(1-methyl-1H-pyrazol-4-yl)-1H-pyrazolo[4,3-b]pyridin-5-yl)-1,3-dimethylpiperazin-2-one] |
| 30 to 200 | COc1cc2[nH]nc(-c3cnn(C)c3)c2nc1N1CCN(C)C(=O)C1C (centres unmarked) [Example 24, 4-(6-Methoxy-3-(1-methyl-1H-pyrazol-4-yl)-1H-pyrazolo[4,3-b]pyridin-5-yl)-1,3-dimethylpiperazin-2-one] |
| < 10 | CC(C)C1C(=O)N(C)CCN1c1ccc2[nH]nc(-c3cnn(C)c3)c2n1 (centres unmarked) [Example 5, 3-Isopropyl-1-methyl-4-(3-(1-methyl-1H-pyrazol-4-yl)-1H-pyrazolo[4,3-b]pyridin-5-yl)piperazin-2-one] |
| 30 to 200 | CC1C(=O)N(C)CCN1c1nc2c(-c3cnn(C)c3)n[nH]c2cc1Cc1ccccc1 (centres unmarked) [Example 26, 4-(6-Benzyl-3-(1-methyl-1H-pyrazol-4-yl)-1H-pyrazolo[4,3-b]pyridin-5-yl)-1,3-dimethylpiperazin-2-one] |
| 10 to 30 | CC(C)C1C(=O)N(C)CCN1c1ccc2[nH]nc(-c3cnn(CCN4CCOCC4)c3)c2n1 (centres unmarked) [Example 17, 3-Isopropyl-1-methyl-4-(3-(1-(2-morpholinoethyl)-1H-pyrazol-4-yl)-1H-pyrazolo[4,3-b]pyridin-5-yl)piperazin-2-one] |
| 30 to 200 | CC(C)C1C(=O)N(C)CCN1c1ccc2[nH]nc(-c3cn(C)nn3)c2n1 (centres unmarked) [Example 20, 3-Isopropyl-1-methyl-4-(3-(1-methyl-1H-1,2,3-triazol-4-yl)-1H-pyrazolo[4,3-b]pyridin-5-yl)piperazin-2-one] |
| 30 to 200 | CC1C(=O)N(C)CCN1c1nc2c(-c3cnn(C)c3)n[nH]c2cc1-c1ccoc1 (centres unmarked) [Example 25, 4-(6-(Furan-3-yl)-3-(1-methyl-1H-pyrazol-4-yl)-1H-pyrazolo[4,3-b]pyridin-5-yl)-1,3-dimethylpiperazin-2-one] |
| 30 to 200 | Cc1cc2[nH]nc(-c3cnn(C)c3)c2nc1N1CCN(C)C(=O)C1C (centres unmarked) [Example 22, 1,3-Dimethyl-4-(6-methyl-3-(1-methyl-1H-pyrazol-4-yl)-1H-pyrazolo[4,3-b]pyridin-5-yl)piperazin-2-one] |
| ≥ 200 | Cn1cc(-c2n[nH]c3ccc(N4CCCn5nccc54)nc23)cn1 [Example 3, 5-(6,7-Dihydropyrazolo[1,5-a]pyrimidin-4(5H)-yl)-3-(1-methyl-1H-pyrazol-4-yl)-1H-pyrazolo[4,3-b]pyridine] |
| < 10 | CC(C)C1C(=O)N(C)CCN1c1ccc2[nH]nc(-c3ccc(N4CCN(C)CC4)c(F)c3)c2n1 (centres unmarked) [Example 18, 4-(3-(3-Fluoro-4-(4-methylpiperazin-1-yl)phenyl)-1H-pyrazolo[4,3-b]pyridin-5-yl)-3-isopropyl-1-methylpiperazin-2-one] |
| < 10 | CN1CCN(c2ccc3[nH]nc(-c4cnn(C)c4)c3n2)C(C2CC2)C1=O (centres unmarked) [Example 13, 3-Cyclopropyl-1-methyl-4-(3-(1-methyl-1H-pyrazol-4-yl)-1H-pyrazolo[4,3-b]pyridin-5-yl)piperazin-2-one] |
| < 10 | CC(C)C1C(=O)N(C)CCN1c1ccc2[nH]nc(-c3cnn(Cc4cccnc4)c3)c2n1 (centres unmarked) [Example 16, 3-Isopropyl-1-methyl-4-(3-(1-(pyridin-3-ylmethyl)-1H-pyrazol-4-yl)-1H-pyrazolo[4,3-b]pyridin-5-yl)piperazin-2-one] |
| 10 to 30 | CC1C(=O)N(C2CC2)CCN1c1ccc2[nH]nc(-c3cnn(C)c3)c2n1 (centres unmarked) [Example 14, 1-Cyclopropyl-3-methyl-4-(3-(1-methyl-1H-pyrazol-4-yl)-1H-pyrazolo[4,3-b]pyridin-5-yl)piperazin-2-one] |
| < 10 | CCC1C(=O)N(C)CCN1c1ccc2[nH]nc(-c3cnn(C)c3)c2n1 (centres unmarked) [Example 6, 3-Ethyl-1-methyl-4-(3-(1-methyl-1H-pyrazol-4-yl)-1H-pyrazolo[4,3-b]pyridin-5-yl)piperazin-2-one] |
| < 10 | CC1CN(c2ccc3[nH]nc(-c4cnn(C)c4)c3n2)C(C)C(=O)N1C (centres unmarked) [Example 15, 1,3,6-Trimethyl-4-(3-(1-methyl-1H-pyrazol-4-yl)-1H-pyrazolo[4,3-b]pyridin-5-yl)piperazin-2-one] |
| 10 to 30 | CN1CCN(c2ccc3[nH]nc(-c4cnn(C)c4)c3n2)C(Cc2ccccc2)C1=O (centres unmarked) [Example 8, 3-Benzyl-1-methyl-4-(3-(1-methyl-1H-pyrazol-4-yl)-1H-pyrazolo[4,3-b]pyridin-5-yl)piperazin-2-one] |
| ≥ 200 | Cn1cc(-c2n[nH]c3ccc(N4CCCC(O)C4)nc23)cn1 (centres unmarked) [Example 1, 1-(3-(1-Methyl-1H-pyrazol-4-yl)-1H-pyrazolo[4,3-b]pyridin-5-yl)piperidin-3-ol] |
| 10 to 30 | CCC1(CC)C(=O)N(C)CCN1c1ccc2[nH]nc(-c3cnn(C)c3)c2n1 [Example 7, 3,3-Diethyl-1-methyl-4-(3-(1-methyl-1H-pyrazol-4-yl)-1H-pyrazolo[4,3-b]pyridin-5-yl)piperazin-2-one] |
| 10 to 30 | CN1CCN(c2ccc3[nH]nc(-c4cnn(C)c4)c3n2)C(CC2CC2)C1=O (centres unmarked) [Example 9, 3-(Cyclopropylmethyl)-1-methyl-4-(3-(1-methyl-1H-pyrazol-4-yl)-1H-pyrazolo[4,3-b]pyridin-5-yl)piperazin-2-one] |
| < 10 | CC(c1ccccc1)C1C(=O)N(C)CCN1c1ccc2[nH]nc(-c3cnn(C)c3)c2n1 (centres unmarked) [Example 12, 1-Methyl-4-(3-(1-methyl-1H-pyrazol-4-yl)-1H-pyrazolo[4,3-b]pyridin-5-yl)-3-(1-phenylethyl)piperazin-2-one] |
| < 10 | CC(C)C1C(=O)N(C)CCN1c1ccc2[nH]nc(-c3cc4cnccc4s3)c2n1 (centres unmarked) [Example 19, 3-Isopropyl-1-methyl-4-(3-(thieno[3,2-c]pyridin-2-yl)-1H-pyrazolo[4,3-b]pyridin-5-yl)piperazin-2-one] |
| < 10 | Cn1cc(-c2n[nH]c3ccc(N4CCn5cnc(C(F)(F)F)c5C4)nc23)cn1 [Example 2, 3-(1-Methyl-1H-pyrazol-4-yl)-5-(1-(trifluoromethyl)-5,6-dihydroimidazo[1,5-a]pyrazin-7(8H)-yl)-1H-pyrazolo[4,3-b]pyridine] |
| ≥ 200 | CN1CCN(c2ccc3[nH]nc(-c4cnn(C)c4)c3n2)C(Cc2ccncc2)C1=O (centres unmarked) [Example 11, 1-Methyl-4-(3-(1-methyl-1H-pyrazol-4-yl)-1H-pyrazolo[4,3-b]pyridin-5-yl)-3-(pyridin-4-ylmethyl)piperazin-2-one] |
| ≥ 200 | CN1CCN(c2ccc3[nH]nc(-c4cnn(C)c4)c3n2)C(C2CCOCC2)C1=O (centres unmarked) [Example 10, 1-Methyl-4-(3-(1-methyl-1H-pyrazol-4-yl)-1H-pyrazolo[4,3-b]pyridin-5-yl)-3-(tetrahydro-2H-pyran-4-yl)piperazin-2-one] |

| SMILES | IC50 [nM] |
| --- | --- |
| CN1CC2CCC(C1=O)N2c1ccc2[nH]nc(-c3cnn(C)c3)c2n1 (centres unmarked) [Example 4, 3-Methyl-8-(3-(1-methyl-1H-pyrazol-4-yl)-1H-pyrazolo[4,3-b]pyridin-5-yl)-3,8-diazabicyclo[3.2.1]octan-2-one] | < 10 |
